# US20060058383A1 (priority 2004, published 2006)
# What was measured:
# Format in all cases: cell-based, human
# HL-60 leukemia cells = assay: Drug combination index, median-effect analysis; conditions: combination with rapamycin (100 ng/ml), 24 h; CI less than 1 = synergistic
# Procedure: (§1) FIGS. 35A-35D show synergistic cytotoxic effect of rapamycin and glycolycin (3-BrOP) in human lymphoma and leukemia cells. In FIG. 35A, the human lymphoma Raji cells were treated with 3-BrOP (30 μM), rapamycin (100 ng/ml), or their combinations as indicated, and apoptosis was measured by flow cytometry analysis after the cells were double-stained with annexin-V and PI as described in the Examples. In case of drug combination, cells were first treated with rapamycin for 18 h before addition of 3-BrOP and incubated for an additional 24 h or 48 h. In FIG. 35B, there is concentration-dependent induction of loss of cell viability by 3-BrOP in the presence and absence of rapamycin (100 ng/ml, 24 h) in Raji cells. Cells were double-stained with annexin-V and PI followed by flow cytometry analysis, and viable cells were expressed as % of control. […] Cell viability was determined as described above.
# (§2) The above observations prompted the present inventors to use a formal drug combination analysis to determine if rapamycin and 3-BrOP have a synergistic effect. […] Cells were treated with various concentrations of 3-BrOP in the presence of a fixed concentration of rapamycin (100 ng/ml) for 24 h, and the percentage of apoptotic cells was quantitated by flow cytometry analysis using annexin-V/PI double staining. […]
# Raji cells [1] = assay: Drug combination index, median-effect analysis; conditions: combination with rapamycin (100 ng/ml), 24 h; CI less than 1 = synergistic
# Procedure: as §1, §2
# Raji cells [2] = assay: Cellular glucose uptake, [3H]-2-deoxyglucose; conditions: 2 h
# Procedure: After the samples were washed three times with cold PBS, the radioactivity in the cell pellets was quantified by liquid scintillation counting. […] Intracellular nucleotides were extracted from the cells with 0.4 N of perchloric acid (PCA) for 10 min in ice-bath, neutralization with concentrated KOH to pH 7.0, and analyzed by HPLC analysis as described previously (Xu et al., 2005; Seymour et al., 1996). The intracellular ATP contents were calculated using the ATP standard curve generated under identical HPLC conditions, and normalized by equal cell number. The relative cellular ATP levels were expressed as percent of the control cells.
structure (smiles),measurement,setting,value
"CCCOC(=O)C(=O)CBr [Glycolycin, propyl 3-bromo-2-oxopropionate]",drug combination index (CI),HL-60 leukemia cells,< 1.0
same,drug combination index (CI),Raji cells [1],< 1.0
same,decrease of glucose uptake,Raji cells [2]; 30 μM,33%
same,decrease of glucose uptake,Raji cells [2]; 50 μM,71%
same,inhibition at 30 µM,"Raji cells [2]; Homo sapiens, Raji, 30 μM, in the presence of rapamycin (100 ng/ml, 18 h pre-treatment)",70%
same,inhibition at 50 µM,"Raji cells [2]; Homo sapiens, Raji, 50 μM, combination with 100 ng/ml of rapamycin (18 h pre-treatment)",94%
